Source: patent US11072601B2, “μ-opioid receptor agonist and preparation method therefor and use thereof in field of medicine” (SHANGHAI SYNERGY PHARMACEUTICAL SCIENCES CO., LTD., priority 2017, dated 2021)

Key:
[1] = test system: rat surgical incision injury model; experiment: Rat surgical incision injury model, von Frey paw withdrawal threshold; format: in vivo, SD rats; settings: rats, intravenous 0.3 mg/kg
Excerpt: (§1) 8-week-old male SD rats weighing 200 g-300 g were used as experimental animals to determine the effect of the compound of Example H02, the compound of Example H04, the compound of Example H10, the compound of Example H16, the compound of Example H17, the compound of Example H18, the compound of Example H21 and the compound of Example H24 on surgical pain in rats after intravenous administration. The analgesic effect of the compounds was discussed.
A certain amount of the compounds or TRV130 (MCE, 15150) was weighed, and dissolved in ethanol/castor oil/water=10/10/80 as a clear and transparent solution.
Three days after the rats were acclimatized to the experimental environment, the preoperative base value was determined, and followed by the surgical pain operation described below, about 24 hours after the surgery, the basic value was measured before administration on all animals, and mechanically hypersensitive animals (the paw withdrawal threshold (PWT) was less than 5 g) was randomly assigned to each administration group according to PWT. The pain threshold was determined 30 minutes and 60 minutes after intravenous administration of the positive drug TRV130 or each compound of the present invention (at a dose of 0.3 mg/kg).
The surgical procedure was performed aseptically, and the surgical instruments (scissors, tweezers, scalpels, surgical cotton and sutures) were sterilized before surgery. The animals were anesthetized with sodium pentobarbital (50 mg/kg, injected intraperitoneally), and the toes of the animals were squeezed to confirm that the animals were completely anesthetized before surgery. From the position of 0.5 cm away from the heel, an incision about 1 cm was made in the longitudinal direction of the toe. After cutting the skin, the musculus flexor digitorum brevis was raised and a blunt injury was caused longitudinally. After pressing to stop bleeding, the wound was sutured. When the animal was completely awake (free to move), the animal was put back into the cage (the reference of the construction of surgical pain model: Timothy J. Brennan, Erik P. Vandermeulen, G. F. Gebhart. Characterization of a rat model of incisional pain. Pain, 64(1996):493-501).
An up-down method was used for the determination of pain sensitivity. The mechanical pain results were expressed as animal paw withdrawal response threshold (PWT). The rat was placed separately in a plexiglass box with a mesh at the bottom of the box to ensure that the rat's feet could be tested. The rat was acclimatized for 15 minutes before the test, and after the acclimatization, the test fiber (von frey fiber, West coast) was used to test in the middle part of the hind foot of the rat. The test fibers included 8 test strengths: 3.61 (0.4 g), 3.84 (0.6 g), 4.08 (1 g), 4.31 (2 g), 4.56 (4 g), 4.74 (6 g), 4.93 (8 g), and 5.18 (15 g). During the test, the test fiber was pressed vertically against the skin and a force was applied to bend the fiber for 6-8 seconds, at an interval of 5 seconds between each test. During the test, the animal's rapid withdrawal was recorded as a pain response. When the test fiber left the animal's skin, the animal's withdrawal was also recorded as a pain response. Starting from 2 g, depending on whether the rats had any pain response, the test was changed into the next test intensity or the previous test intensity. A series of responses of the rats to different test intensities were recorded. […] Wherein, Xf was the logarithmic value of von Frey fiber used in the last test, and K value was the animal withdrawal reaction mode (recorded during the test), which was the value obtained after looking up the table according to the obtained sequence of “X” and “O”, δ=Mean of logarithmic difference between von Frey fibers used in the test.

μ opioid receptor (MOR) = target: T1, μ opioid receptor (MOR) (Homo sapiens, UniProt P35372); experiment: cell-based; settings: HEK293 stably expressing μ opioid receptor, FLIPR calcium
T1 construct: host or cells: HEK293
T1 sequence (P35372 whole entry, species assumed): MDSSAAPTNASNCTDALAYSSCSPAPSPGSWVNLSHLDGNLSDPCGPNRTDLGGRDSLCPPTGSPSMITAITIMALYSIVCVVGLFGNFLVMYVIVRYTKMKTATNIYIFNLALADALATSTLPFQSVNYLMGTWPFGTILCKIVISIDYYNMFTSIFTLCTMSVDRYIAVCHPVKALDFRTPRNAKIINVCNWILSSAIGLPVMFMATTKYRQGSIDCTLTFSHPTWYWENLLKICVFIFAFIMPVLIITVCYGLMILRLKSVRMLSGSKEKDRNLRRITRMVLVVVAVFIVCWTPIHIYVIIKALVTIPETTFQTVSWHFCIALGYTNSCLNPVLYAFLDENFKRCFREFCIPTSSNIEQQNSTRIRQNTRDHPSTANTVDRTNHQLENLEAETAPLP
Procedure: The purpose of the experiment was to test the agonistic effects of the compounds of the present invention on μ opioid receptor (MOR), κ opioid receptor (KOR) and δ opioid receptor (DOR), and to evaluate in vitro activity of the compounds according to the half-maximal effect concentration (EC50).
This test was performed using HEK293 cell lines (the stably expressed cell lines were provided by WuXi AppTec) which stably expressed μ opioid receptor, δ opioid receptor or κ opioid receptor respectively. […] The cells were centrifuged at 1000 rpm for 5 minutes at room temperature to precipitate. The supernatant was sucked out, be careful not to suck out cells. The precipitate was flicked into the loose cells and resuspend in 45 ml DMEM medium. The Vi-CELL XR automatic cell viability detector (BECKMAN COULTER) was used to count the cells, and the cell concentration was adjusted to 10×10^5 cells/ml based on the counting results.
Preparation of probenecid mother solution: 1 ml of FLIPR test solution was added to 77 mg probenecid to prepare a 250 mM solution. The solution was freshly prepared just before use.
The solution was freshly prepared just before use.
The cell plate prepared above was removed from the incubator and 20 ul 2× Fluo-4 Direct™ buffer was added thereto. The final volume in the cell plate was […]. The plate was incubated at 37° C., under 5% CO2 for 50 minutes, and incubated at room temperature for 10 minutes, then was placed into the FLIPR instrument (MD), and the compound plate and pipette box was placed into. The protocol was run on the […] platform, 10 μl of positive drug or the test compound was transfered to the cell plate from the compound plate, and the fluorescent signal was read.
The signal value generated by each well was calculated, and the calculation formula was that: the activity %=(signal value of the test compound−signal value of the solvent)/(signal value of the positive drug−signal value of the solvent).

[2] = target: T2, cAMP pathway of MOR receptor (Homo sapiens, UniProt P35372); experiment: cell-based; settings: cAMP Hunter HEK293 cells, forskolin-induced cAMP; read-out: EC50 of cAMP levels affected by agonistic effect on MOR
T2 construct: host or cells: HEK293 (cAMP Hunter cell line)
T2 sequence (P35372 whole entry): as the sequence (P35372 whole entry, species assumed) above
Excerpt: The purpose of this experiment was to test the agonistic effect of the compounds of the invention on the cAMP pathway of MOR and to evaluate the in vitro activity of the compounds according to EC50.
In this experiment, HitHunter cAMP Assay EFC technology of DiscoverX was used to measure the cAMP level in cells and monitor the functional status of G-protein coupled receptors (GPCRs).
The amount of signal produced was directly proportional to the amount of cAMP in the cell.
The MOR receptor was bound to the inhibitory Gαi protein, so forskolin (for inducing cAMP signal) was used to induce cAMP expression in the experiment, and the inhibitory effect of the compounds on the above induction was measured.
The cAMP Hunter cell line (HEK293, DiscoverX) was removed from the freezer and expanded according to the Cell Standard Operating Procedure (SOP), 20 μL was collected and inoculated into a 384-well microplate and incubated at 37° C. overnight.
The HitHunter cAMP Assay test kit (DiscoverX, 90-0075sm) was used, the kit contained cAMP buffer, cAMP detection solution, and cAMP working solution A.
The formula was used to calculate the percentage of signal activity per well=100%×(1−(average RLU of the test samples−average RLU of the MAX controls)/(average RLU of the solvent controls−average RLU of the MAX controls)). wherein, the MAX control referred to the fluorescence signal value of the endorphin solution, and the solvent control referred to the fluorescence signal value of DMSO. The DiscoveRx CBIS data analysis workstation (ChemInnovation, CA) was used to perform statistical analysis of the percentage of signal activity and the concentration of the compounds by the agonist formula (comes with the software, universal) to calculate the EC50 value.

SD rats = experiment: Respiratory depression in rats, arterial blood gas PCO2; format: in vivo
Excerpt: as §1, with “H05,” for “H02,”, “H08,” for “H04,”, “H21,” for “H21”, “the partial pressure of blood” for “surgical pain”, “effects” for “analgesic effect”, “of the invention on respiratory depression were investigated.” for “was discussed.”
After the rats were acclimatized to the experimental environment for 3 days, each animal was anesthetized with sodium pentobarbital (50-60 mg/kg, ip), and then the right common carotid artery was isolated and the unilateral carotid artery tube-bury surgery was performed (PE60, ID*OD*length as 0.76 mm*1.22 mm*20 cm, buried into the artery 1 cm deep, and the tube was filled with heparin sodium tube sealing solution).

[3] = target: T3, β-arrestin signaling pathway of MOR (Homo sapiens, UniProt P35372); experiment: cell-based; settings: PathHunter HEK293 cells, relative to endorphin MAX control
T3 construct: host or cells: HEK293 (PathHunter cell line)
T3 sequence (P35372 whole entry): as the sequence (P35372 whole entry, species assumed) above

Cc1cc(F)cnc1C1(CCNCc2ccccc2OC(F)(F)F)CCOC2(CCCC2)C1 (stereo not shown) [Example H10, (2-trifluoromethoxybenzyl)-[2-(9-(3-methyl-5-fluoropyridin-2-yl)-6-oxaspiro[4.5]decan-9-yl)ethyl]amine]
50% PWT, 30 min after administration ([1]; 30 min): 8.05 ± 0.24 g
50% PWT, 60 min after administration ([1]; 60 min): 7.59 ± 1.02 g
EC50 (μ opioid receptor (MOR)): 2.15 nM
EC50 [2]: 2.89 nM
PCO2, 5 min before administration (SD rats; arterial blood, before administration): 35.72 ± 1.88 mmHg
PCO2, 5 min after administration (SD rats; intravenous single dose 0.3 mg/kg (morphine 24 mg/kg), 5 min): 37.48 ± 1.94 mmHg
PCO2, 30 min after administration (SD rats; intravenous single dose 0.3 mg/kg (morphine 24 mg/kg), 30 min): 35.03 ± 1.89 mmHg
PCO2, 60 min after administration (SD rats; intravenous single dose 0.3 mg/kg (morphine 24 mg/kg), 60 min): 36.27 ± 1.67 mmHg
PCO2, 120 min after administration (SD rats; intravenous single dose 0.3 mg/kg (morphine 24 mg/kg), 120 min): 36.83 ± 1.85 mmHg
Emax [3]: 3.7%
